# Literature values as cited in paper PMC4041784, “Stereoselective Property of 20(S)-Protopanaxadiol Ocotillol Type Epimers Affects Its Absorption and Also the Inhibition of P-Glycoprotein” (PLoS ONE, 2014).
# Legend:
# [1] = test system: peroxisome proliferator activated receptor-γ; set-up: method as in PMID 22234331
# [2] = test system: human fecal microflora; set-up: method as in PMID 11824558
# [3] = not told
# [4] = set-up: method as in PMID 21258738, PMID 15734156
Compound,permeability [3],oral bioavailability [4],further results
20(S)-Rg3,,,peroxisome proliferator activated receptor-γ activity relative to 20(R)-Rg3 [1]: 10 fold; transformation amount into 20(S)-Rh2 or 20(S)-PPD relative to 20(R)-Rg3 [2]: 19 fold
CC(C)=CCC[C@@](C)(O)[C@H]1CC[C@]2(C)[C@@H]1[C@H](O)C[C@@H]1[C@@]3(C)CC[C@H](O[C@@H]4O[C@H](CO)[C@@H](O)[C@H](O)[C@H]4O)C(C)(C)[C@@H]3CC[C@]12C [20(R)-Rh2],0.02 ×10⁻⁶ cm/s,,
CC(C)=CCCC(C)(O)C1CCC2C1C(O)CC1C2(C)CCC2C(C)(C)C(OC3OC(CO)C(O)C(O)C3O)CCC21C [20(S)-Rh2],0.3 ×10⁻⁶ cm/s,,permeability difference between 20(R)-Rh2 and 20(S)-Rh2 [3]: 15 folds
"CC(C)=CCC[C@](C)(O)[C@H]1CC[C@]2(C)[C@@H]1[C@H](O)C[C@@H]1[C@@]3(C)CC[C@H](O[C@@H]4O[C@H](CO)[C@@H](O)[C@H](O)[C@H]4O[C@@H]4O[C@H](CO)[C@@H](O)[C@H](O)[C@H]4O)C(C)(C)[C@@H]3CC[C@]12C [Rg3, Ginsenoside Rg3]",,less than 5%,
"CC(C)=CCC[C@](C)(O)[C@H]1CC[C@]2(C)[C@@H]1[C@H](O)C[C@@H]1[C@@]3(C)CC[C@H](O[C@@H]4O[C@H](CO)[C@@H](O)[C@H](O)[C@H]4O)C(C)(C)[C@@H]3CC[C@]12C [Rh2, ginsenoside Rh2]",,less than 5%,
